Experimental findings from patent publication US12435087B2, “Modulators of DCN-1 and methods of use thereof” (Cellarity, Inc., priority 2023, dated 2025) are described below.

The target in assay [1] is DCN1 (DCUND1) protein PONY domain (Homo sapiens (Human), UniProt Q96GG9). Kind of assay: TR-FRET assay (binding to DCN-1, displacement of FAM-labeled probe). The procedure, abridged: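 Compounds read at 1, 5 and 24 h, 0.1% final DMSO, by TR-FRET between terbium-streptavidin on biotinylated DCN1 PONY domain (E. coli) and a FAM-tagged non-covalent inhibitor probe. Two setups used, 5 nM protein with 20 nM labelled probe, or 0.31 nM protein with 100 nM labelled plus 800 nM unlabelled probe; buffer had TritonX and 200 mM NaCl. % activity relative to high (with probe) and low (without probe) controls.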
Chain of DCN1 (DCUND1) protein PONY domain (Q96GG9 60-248): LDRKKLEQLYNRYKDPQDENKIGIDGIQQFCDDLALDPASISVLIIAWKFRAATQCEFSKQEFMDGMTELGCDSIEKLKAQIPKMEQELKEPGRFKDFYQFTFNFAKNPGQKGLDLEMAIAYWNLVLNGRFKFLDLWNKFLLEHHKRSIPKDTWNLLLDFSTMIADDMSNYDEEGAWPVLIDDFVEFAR

The next assay concerns the target DCN1 protein (Homo sapiens (Human), UniProt Q96GG9). Kind of assay: Intact protein MS analysis with the RapidFire-TOF system (covalent adduct formation). The format is binding. To be noted: 400 nM DCN1, incubated at room temperature for 3 hours. In short, it runs like this:
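Tag-free His-TEV-DCN1 expressed in E. coli at 400 nM in 25 mM Tris-HCl, 200 mM NaCl, 1 mM DTT, incubated with 11 compound concentrations at room temperature for 3 h unless otherwise specified. Quenched with 0.2% formic acid; intact-protein RapidFire Q-TOF MS, deconvoluted to detect parent and compound-adduct masses.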

Where [2] appears, read: 24 hr after treatment with compound, read-out: TR FRET IC50 24 hr.
Where [3] appears, read: TR FRET IC50 1 hr (nM), 1 hr after treatment with compound.
Where [4] appears, read: read-out: TR FRET IC50 1 hr, 1 hr after treatment with compound.

Structures are written as SMILES. Where two headings read alike, the source gives them in different places.

Chain of DCN1 protein (Q96GG9 whole entry): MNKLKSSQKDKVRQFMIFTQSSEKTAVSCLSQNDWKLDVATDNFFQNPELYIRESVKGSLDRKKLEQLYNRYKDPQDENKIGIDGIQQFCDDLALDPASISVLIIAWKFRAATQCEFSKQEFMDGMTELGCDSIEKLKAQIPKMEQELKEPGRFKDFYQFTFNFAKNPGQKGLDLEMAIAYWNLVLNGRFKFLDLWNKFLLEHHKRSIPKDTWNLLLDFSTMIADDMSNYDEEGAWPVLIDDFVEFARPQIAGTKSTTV

For `CCN1C(=O)[C@H](NC(=O)c2cccc(C(F)(F)F)c2)[C@@H](c2cccc(NC(=O)C#CCN(C)C)c2)c2c(C)nn(-c3ccccc3)c21` (racemic) [Compound I-133, rac-N-((4R,5S)-4-(3-(4-(dimethylamino)but-2-ynamido)phenyl)-7-ethyl-3-methyl-6-oxo-1-phenyl-4,5,6,7-tetrahydro-1H-pyrazolo[3,4-b]pyridin-5-yl)-3-(trifluoromethyl)benzamide], the IC50 in assay [1] (setting [2]) and in assay [1] (setting [3]) was not above 200 nM each time. On DCN1 protein, the Emax was 80 to 100%.

As to `C=C(C(=O)NCc1cccc([C@@H]2c3cnn(-c4ccccc4)c3N(CC)C(=O)[C@H]2NC(=O)c2csc(C(F)(F)F)n2)c1)C(C)(C)N(C)C1COC1` [Compound I-231, N-((4R,5S)-7-ethyl-4-(3-((3-methyl-3-(methyl(oxetan-3-yl)amino)-2-methylenebutanamido)methyl)phenyl)-6-oxo-1-phenyl-4,5,6,7-tetrahydro-1H-pyrazolo[3,4-b]pyridin-5-yl)-2-(trifluoromethyl)thiazole-4-carboxamide], the IC50 in assay [1] (setting [2]) and in assay [1] (setting [4]) was not above 200 nM throughout. At DCN1 protein, this molecule had an Emax of 80 to 100%.

Turning to `C=C(CN1CC2(COC2)C1)C(=O)Nc1cccc([C@@H]2c3c(C)nn(-c4ccccc4)c3N(CC)C(=O)[C@H]2NC(=O)c2cccc(C(F)(F)F)c2)c1` (racemic) [Compound I-64], the IC50 in assay [1] (setting [2]) and in assay [1] (setting [4]) was not above 200 nM throughout. The Emax on DCN1 protein lay in the range of 80 to 100%.

Consider `C=C(CN1CCC1)C(=O)Nc1cccc([C@H]2c3c(C)nn(-c4ccccc4)c3N(CC)C(=O)[C@@H]2NC(=O)c2cccc(C(F)(F)F)c2)c1` (racemic) [Compound I-137], for which the IC50 in assay [1] (setting [2]) and in assay [1] (setting [4]) was not above 200 nM in each case. For the same molecule, on DCN1 protein, the Emax lay in the range of 80 to 100%.

As for `CCN1CC=C(C(=O)Nc2cccc([C@@H]3c4c(C)nn(-c5ccccc5)c4N(CC)C(=O)[C@H]3NC(=O)c3ccn(C(F)(F)F)n3)c2)C1` [Compound I-227], the results for the IC50 in assay [1] (setting [2]) and in assay [1] (setting [3]) were not above 200 nM and 200 to 1000 nM, respectively. The Emax on DCN1 protein was 80 to 100%.

Regarding `C=C(CN1CCOCC1)C(=O)NCc1cccc([C@@H]2c3cnn(-c4ccccc4)c3N(CC)C(=O)[C@H]2NC(=O)c2ccn(C(F)(F)F)n2)c1` [Compound I-135], the IC50 in assay [1] (setting [2]) and in assay [1] (setting [4]) was not above 200 nM each time. This molecule also registered an Emax on DCN1 protein of 80 to 100%.

`C=C(CN1CCOCC1)C(=O)Nc1cccc([C@H]2c3c(C)nn(-c4ccccc4)c3N(CC)C(=O)[C@@H]2NC(=O)c2ccn(C(F)(F)F)n2)c1` (racemic) [Compound I-65]: the half-inhibitory concentration (IC50) in assay [1] (setting [2]) and in assay [1] (setting [4]) was not above 200 nM each time. For the same molecule, at DCN1 protein, the Emax is 80 to 100%.

For `C=CC(=O)Nc1cccc([C@H]2c3c(C)nn(-c4ccccc4)c3N(CC)C(=O)[C@H]2NC(=O)c2cccc(C(F)(F)F)c2)c1` (racemic) [Compound I-25], the IC50 in assay [1] (setting [2]) and in assay [1] (setting [3]) was more than 3000 nM throughout. On DCN1 protein, this molecule returned an Emax of 0 to 30%.

Consider `C=C(CN1CCC(F)(F)C1)C(=O)NCc1cccc([C@@H]2c3cnn(-c4ccccc4)c3N(CC)C(=O)[C@H]2NC(=O)c2cccc(C(F)(F)F)c2)c1` [Compound I-44], for which the IC50 is not above 200 nM in assay [1] (setting [2]) and 200 to 1000 nM in assay [1] (setting [3]). The molecule further gave an Emax at DCN1 protein of 80 to 100%.

On to `CCN1C(=O)[C@H](NC(=O)c2cccc(C(F)(F)F)c2)[C@@H](c2cccc(NC(=O)[C@H](F)Cl)c2)c2c(C)nn(-c3ccccc3)c21` (mixture of isomers) [Compound I-150], for which the IC50 was in the range of 200 to 1000 nM in assay [1] (setting [2]) and 1000 to 3000 nM in assay [1] (setting [3]). The Emax at DCN1 protein was in the range of 80 to 100%.

Take `C=C(CN1CC2(COC2)C1)C(=O)NCc1cccc([C@@H]2c3cnn(-c4ccccc4)c3N(CC)C(=O)[C@H]2NC(=O)c2cccc(C(F)(F)F)c2)c1` [Compound I-6]: the IC50 in assay [1] (setting [2]) and in assay [1] (setting [4]) was not above 200 nM throughout. At DCN1 protein, this molecule yielded a maximal response (Emax) of 80 to 100%.

Regarding `C/C=C(\CN1CCN(C2COC2)CC1)C(=O)Nc1cccc([C@@H]2c3c(C)nn(-c4ccccc4)c3N(CC)C(=O)[C@H]2NC(=O)c2nccc(C(F)(F)F)n2)c1` (racemic) [Compound I-229], the IC50 in assay [1] (setting [2]) and in assay [1] (setting [3]) was not above 200 nM in each case. Moreover, at DCN1 protein, the Emax lay within 80 to 100%.

Consider `C=C(CN(C)C1COC1)C(=O)NCc1cccc([C@@H]2c3cnn(-c4ccccc4)c3N(CC)C(=O)[C@H]2NC(=O)c2cccc(C(F)(F)F)c2)c1` [Compound I-66], for which the IC50 in assay [1] (setting [2]) and in assay [1] (setting [4]) was not above 200 nM each time. At DCN1 protein, the Emax is 80 to 100%.

For the molecule `C=C(CN1CCOCC1)C(=O)Nc1cccc([C@H]2c3c(C)nn(-c4ccccc4)c3N(CC)C(=O)C2NC(=O)c2cccc(C(F)(F)F)c2)c1` (stereo in doubt) [Compound I-83, N-((4S,5R)-7-ethyl-3-methyl-4-(3-(2-(morpholinomethyl)acrylamido)phenyl)-6-oxo-1-phenyl-4,5,6,7-tetrahydro-1H-pyrazolo[3,4-b]pyridin-5-yl)-3-(trifluoromethyl)benzamide], the IC50 in assay [1] (setting [2]) and in assay [1] (setting [4]) was not above 200 nM each time. Further, the “% Adduct Formation (MS Emax)” value at DCN1 protein was “++ (MS Emax % adduct formation greater than 30.0 and less than or equal to 80.0)”.

For the molecule `C=C(CN1CCC(F)(F)C1)C(=O)Nc1cccc([C@@H]2c3c(C)nn(-c4ccccc4)c3N(CC)C(=O)[C@H]2NC(=O)c2cccc(C(F)(F)F)c2)c1` (racemic) [Compound I-60], the IC50 in assay [1] (setting [2]) and in assay [1] (setting [4]) was not above 200 nM each time. At DCN1 protein, the Emax was in the range of 80 to 100%.

As to `CCN1C(=O)[C@@H](NC(=O)c2cccc(C(F)(F)F)c2)[C@@H](c2cccc(NC(=O)[C@H](C)Cl)c2)c2c(C)nn(-c3ccccc3)c21` (mixture of isomers) [Compound I-16], the IC50 in assay [1] (setting [2]) and in assay [1] (setting [4]) was more than 3000 nM in each case. For the same molecule, the Emax at DCN1 protein lay in the range of 0 to 30%.

Turning to `CCN1C(=O)[C@H](NC(=O)c2cccc(C(F)(F)F)c2)[C@@H](c2cccc(NC(=O)/C(C#N)=C/C(C)C)c2)c2c(C)nn(-c3ccccc3)c21` (racemic) [Compound I-46, rac-N-((4R,5S)-4-(3-((E)-2-cyano-4-methylpent-2-enamido)phenyl)-7-ethyl-3-methyl-6-oxo-1-phenyl-4,5,6,7-tetrahydro-1H-pyrazolo[3,4-b]pyridin-5-yl)-3-(trifluoromethyl)benzamide], the IC50 in assay [1] (setting [2]) and in assay [1] (setting [3]) was not above 200 nM in each case. In addition, the Emax on DCN1 protein is 80 to 100%.

As for `CCN1C(=O)[C@@H](NC(=O)c2cccc(C(F)(F)F)c2)[C@@H](c2cccc(NC(=O)/C=C/C(F)(F)F)c2)c2c(C)nn(-c3ccccc3)c21` (racemic) [Compound I-27], the IC50 in assay [1] (setting [2]) and in assay [1] (setting [3]) was more than 3000 nM in each case. The Emax on DCN1 protein lay in the range of 0 to 30%.

On to `C/C=C/C(=O)Nc1cccc([C@H]2c3c(C)nn(-c4ccccc4)c3N(CC)C(=O)[C@H]2NC(=O)c2cccc(C(F)(F)F)c2)c1` (racemic) [Compound I-23], for which the half-maximal inhibitory concentration (IC50) in assay [1] (setting [2]) and in assay [1] (setting [3]) was more than 3000 nM each time. Also, the Emax at DCN1 protein was in the range of 0 to 30%.

On to `C=C(CN1CCOCC1)C(=O)Nc1cccc([C@H]2c3c(C)nn(-c4ccccc4)c3N(CC)C(=O)[C@@H]2NC(=O)c2cccc(C(F)(F)F)c2)c1` (racemic) [Compound I-9, N-[rac-(4S,5R)-7-ethyl-3-methyl-4-[3-[2-(morpholinomethyl)prop-2-enoylamino]phenyl]-6-oxo-1-phenyl-4,5-dihydropyrazolo[3,4-b]pyridin-5-yl]-3-(trifluoromethyl)benzamide], for which the IC50 in assay [1] (setting [2]) and in assay [1] (setting [3]) was not above 200 nM each time. On DCN1 protein, this molecule gave an Emax of 80 to 100%.

With `C=C(CN1CCC1)C(=O)NCc1cccc([C@@H]2c3cnn(-c4ccccc4)c3N(CC)C(=O)[C@H]2NC(=O)c2cccc(C(F)(F)F)c2)c1` [Compound I-1], the IC50 in assay [1] (setting [2]) and in assay [1] (setting [4]) was not above 200 nM each time. The molecule also had an Emax at DCN1 protein of 80 to 100%.

With `CCN1C(=O)[C@H](NC(=O)c2cccc(C(F)(F)F)c2)[C@@H](c2ccccc2NC(=O)[C@H](C)Br)c2cnn(-c3ccccc3)c21` (mixture of isomers) [Compound I-72], the IC50 in assay [1] (setting [2]) is 200 to 1000 nM; in assay [1] (setting [3]) it was 1000 to 3000 nM. Besides, the Emax on DCN1 protein lay in the range of 80 to 100%.

For `CCN1C(=O)[C@@H](NC(=O)c2cccc(C(F)(F)F)c2)[C@@H](c2cccc(NC(=O)C3=CCCC3)c2)c2c(C)nn(-c3ccccc3)c21` (racemic) [Compound I-24], the IC50 in assay [1] (setting [2]) and in assay [1] (setting [3]) was more than 3000 nM each time. The Emax at DCN1 protein was in the range of 0 to 30%.

Regarding `C=C(CN1CC(F)(F)C1)C(=O)NCc1cccc([C@@H]2c3cnn(-c4ccccc4)c3N(CC)C(=O)[C@H]2NC(=O)c2cccc(C(F)(F)F)c2)c1` [Compound I-14], the IC50 in assay [1] (setting [2]) and in assay [1] (setting [4]) was not above 200 nM each time. This molecule also displayed an Emax on DCN1 protein of 80 to 100%.

Consider `C=C(CN1CCOCC1)C(=O)Nc1ccccc1[C@H]1c2cnn(-c3ccccc3)c2N(CC)C(=O)[C@@H]1NC(=O)c1cccc(C(F)(F)F)c1` (racemic) [Compound I-15], for which the IC50 in assay [1] (setting [2]) and in assay [1] (setting [4]) was not above 200 nM in each case. Further, at DCN1 protein, the Emax was in the range of 80 to 100%.

Regarding `C=C(CN1CCN(C2COC2)CC1)C(=O)NCc1cccc([C@@H]2c3cnn(-c4ccccc4)c3N(CC)C(=O)[C@H]2NC(=O)c2cccc(C(F)(F)F)c2)n1` [Compound I-216], the figures for the IC50 in assay [1] (setting [2]) and in assay [1] (setting [3]) were not above 200 nM and 200 to 1000 nM, respectively. At DCN1 protein, this molecule displayed an Emax of 80 to 100%.

Consider `C=C(C)C(=O)Nc1cccc([C@H]2c3c(C)nn(-c4ccccc4)c3N(CC)C(=O)[C@H]2NC(=O)c2cccc(C(F)(F)F)c2)c1` (racemic) [Compound I-17], for which the IC50 in assay [1] (setting [2]) and in assay [1] (setting [3]) was more than 3000 nM throughout. This molecule also registered an Emax on DCN1 protein of 0 to 30%.
